Source: PubChem BioAssay AID248 (DTP/NCI, 2004)
“And” between values parts separate entries of the source, which are not always exact repeats. Equal values may be shown once. Toxic doses and inconclusive results are not listed. No stated cut-off is given here; in the data, active means T/C of 150% or more; inactive means T/C below 125%.

Tested on: L1210 leukemia ip in BDF1 mice, survival T/C
Assay: NCI In Vivo Anticancer Drug Screen. Data for tumor model L1210 Leukemia (intraperitoneal) in B6D2F1 (BDF1) mice
Conditions: endpoint: mean survival time, higher = longer survival
Procedure, shortened: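 Mice bearing the transplanted tumor received compound or vehicle. Survival of the treated group was divided by that of the vehicle-treated control group to give the ratio.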

[1] = dose: 100.0 mg/kg/injection, schedule: Q04DX003 (ip), vehicle: Klucel (hydroxypropylcellulose) (HPC)
[2] = dose: 200.0 mg/kg/injection, schedule: Q04DX003 (ip), vehicle: Klucel (hydroxypropylcellulose) (HPC)
[3] = dose: 100.0 mg/kg/injection, schedule: Q01DX009 (ip), vehicle: saline with Tween-80
[4] = dose: 200.0 mg/kg/injection, schedule: Q01DX009 (ip), vehicle: saline with Tween-80
[5] = dose: 400.0 mg/kg/injection, schedule: Q01DX009 (ip), vehicle: saline with Tween-80
[6] = dose: 100.0 mg/kg/injection, schedule: Q01DX001 (ip), vehicle: carboxymethylcellulose (CMC)
[7] = dose: 200.0 mg/kg/injection, schedule: Q01DX001 (ip), vehicle: carboxymethylcellulose (CMC)
[8] = dose: 300.0 mg/kg/injection, schedule: Q01DX001 (ip), vehicle: carboxymethylcellulose (CMC)
[9] = dose: 400.0 mg/kg/injection, schedule: Q01DX001 (ip), vehicle: carboxymethylcellulose (CMC)
[10] = dose: 50.0 mg/kg/injection, schedule: Q01DX001 (ip), vehicle: carboxymethylcellulose (CMC)
[11] = dose: 100.0 mg/kg/injection, schedule: Q04DX003 (ip), vehicle: saline with Tween-80
[12] = dose: 200.0 mg/kg/injection, schedule: Q04DX003 (ip), vehicle: saline with Tween-80
[13] = dose: 400.0 mg/kg/injection, schedule: Q04DX003 (ip), vehicle: saline with Tween-80

Measured: T/C

C[n+]1c2ccccc2c(N=[N+]=[N-])c2ccccc21
inactive: dose: 6.25 mg/kg/injection, schedule: Q01DX001 (ip), vehicle: suspension in saline 98 % of control | dose: 12.5 mg/kg/injection, schedule: Q01DX001 (ip), vehicle: suspension in saline 98 % of control | dose: 12.5 mg/kg/injection, schedule: Q04DX003 (ip), vehicle: suspension in saline 97 % of control | dose: 25.0 mg/kg/injection, schedule: Q01DX001 (ip), vehicle: suspension in saline 98 % of control | dose: 25.0 mg/kg/injection, schedule: Q04DX003 (ip), vehicle: suspension in saline 95 % of control | dose: 50.0 mg/kg/injection, schedule: Q04DX003 (ip), vehicle: suspension in saline 105 % of control

CC(=O)Nc1ccc(NC(=O)Nc2ccc(F)c(Cl)c2)cc1
inactive: [1] 92 % of control | [2] 97 % of control | dose: 400.0 mg/kg/injection, schedule: Q04DX003 (ip), vehicle: Klucel (hydroxypropylcellulose) (HPC) 95 % of control

CC(O)C#N (centres undefined)
inactive: dose: 0.63 mg/kg/injection, schedule: Q04DX003 (ip), vehicle: saline 102 % of control | dose: 1.25 mg/kg/injection, schedule: Q04DX003 (ip), vehicle: saline 115 % of control | dose: 2.5 mg/kg/injection, schedule: Q04DX003 (ip), vehicle: saline 115 % of control | dose: 5.0 mg/kg/injection, schedule: Q04DX003 (ip), vehicle: saline 103 % of control

COc1ccc(C(=O)N/N=C/c2cc(OC)ccc2O)cc1
inactive: dose: 100.0 mg/kg/injection, schedule: Q04DX002 (ip), vehicle: Klucel (hydroxypropylcellulose) (HPC) 110 % of control | dose: 200.0 mg/kg/injection, schedule: Q04DX002 (ip), vehicle: Klucel (hydroxypropylcellulose) (HPC) 104 % of control | dose: 400.0 mg/kg/injection, schedule: Q04DX002 (ip), vehicle: Klucel (hydroxypropylcellulose) (HPC) 100 % of control

COC(=O)CCN(c1ccccc1)c1ccc(C)cc1
inactive: [3] 91 % of control | [4] 92 % of control | [5] 92 % of control

C/C=C/C=C/COC(=O)C(C)(C)C
inactive: dose: 50.0 mg/kg/injection, schedule: Q04DX002 (ip), vehicle: saline 103 % of control | dose: 100.0 mg/kg/injection, schedule: Q04DX002 (ip), vehicle: saline 95 % of control and 96 % of control | dose: 200.0 mg/kg/injection, schedule: Q04DX002 (ip), vehicle: saline 98 % of control | dose: 400.0 mg/kg/injection, schedule: Q04DX002 (ip), vehicle: saline 96 % of control and 107 % of control

CCOC(=O)NC(=O)n1ncnc1N
inactive: dose: 100.0 mg/kg/injection, schedule: Q04DX003 (ip), vehicle: saline 108 % of control | dose: 200.0 mg/kg/injection, schedule: Q04DX003 (ip), vehicle: saline 103 % of control | dose: 400.0 mg/kg/injection, schedule: Q04DX003 (ip), vehicle: saline 94 % of control

COc1c2c(c(OC)c3c1c(=O)c1ccccc1n3C)OCO2
inactive: [6] 102 % of control | [7] 98 % of control | [8] 102 % of control | [9] 96 % of control | dose: 500.0 mg/kg/injection, schedule: Q01DX001 (ip), vehicle: carboxymethylcellulose (CMC) 93 % of control

CNc1nc(SCc2ccccc2)c2ncn(C3OC(CO)C(O)C3O)c2n1 (centres undefined)
inactive: [10] 106 % of control | [6] 95 % of control | [7] 104 % of control

C(=C\c1cccc2ccccc12)/c1ccncc1
inactive: dose: 75.0 mg/kg/injection, schedule: Q01DX001 (ip), vehicle: carboxymethylcellulose (CMC) 97 % of control | dose: 150.0 mg/kg/injection, schedule: Q01DX001 (ip), vehicle: carboxymethylcellulose (CMC) 88 % of control | [8] 90 % of control

CC(=O)Oc1c(I)cc(I)cc1C(=O)Nc1ccc(Cl)cc1
inactive: dose: 50.0 mg/kg/injection, schedule: Q01DX009 (ip), vehicle: saline with Tween-80 94 % of control | [3] 87 % of control

Cc1nccc2c1[nH]c1cc(N)ccc12.[Cl][Sn][Cl]
inactive: dose: 5.0 mg/kg/injection, schedule: Q04DX003 (ip), vehicle: saline with Tween-80 102 % of control | dose: 10.0 mg/kg/injection, schedule: Q04DX003 (ip), vehicle: saline with Tween-80 94 % of control | dose: 20.0 mg/kg/injection, schedule: Q04DX003 (ip), vehicle: saline with Tween-80 96 % of control

C=CC(CO)N1CC1 (centres undefined)
inactive: dose: 25.0 mg/kg/injection, schedule: Q01DX001 (ip), vehicle: carboxymethylcellulose (CMC) 101 % of control | [10] 103 % of control

CC[n+]1c(C=Nc2ccc(N(C)C)cc2)sc2ccccc21
inactive: dose: 3.13 mg/kg/injection, schedule: Q04DX003 (ip), vehicle: carboxymethylcellulose (CMC) 107 % of control | dose: 6.25 mg/kg/injection, schedule: Q04DX003 (ip), vehicle: carboxymethylcellulose (CMC) 98 % of control | dose: 12.5 mg/kg/injection, schedule: Q04DX002 (ip), vehicle: carboxymethylcellulose (CMC) 104 % of control and 106 % of control | dose: 12.5 mg/kg/injection, schedule: Q04DX003 (ip), vehicle: carboxymethylcellulose (CMC) 96 % of control and 100 % of control | dose: 25.0 mg/kg/injection, schedule: Q04DX002 (ip), vehicle: carboxymethylcellulose (CMC) 109 % of control and 116 % of control

O=C(O)C1C2C=CCC1CC2 (centres undefined)
inactive: dose: 100.0 mg/kg/injection, schedule: Q04DX003 (ip), vehicle: alcohol 100 % of control | dose: 200.0 mg/kg/injection, schedule: Q04DX003 (ip), vehicle: alcohol 103 % of control | dose: 400.0 mg/kg/injection, schedule: Q04DX003 (ip), vehicle: alcohol 100 % of control

O=C1C=C(c2ccccc2)Sc2ccccc2N1
inactive: [11] 97 % of control | [12] 100 % of control | [13] 97 % of control

N#Cc1ncc(-c2ccccc2)nc1C#N
inactive: [3] 103 % of control | [4] 100 % of control | [5] 88 % of control

CC(=O)OCC1OC(SSC2OC(COC(C)=O)C(OC(C)=O)C(OC(C)=O)C2OC(C)=O)C(OC(C)=O)C(OC(C)=O)C1OC(C)=O (centres undefined)
inactive: dose: 100.0 mg/kg/injection, schedule: Q01DX001 (ip), vehicle: saline 93 % of control | dose: 200.0 mg/kg/injection, schedule: Q01DX001 (ip), vehicle: saline 95 % of control | dose: 400.0 mg/kg/injection, schedule: Q01DX001 (ip), vehicle: saline 89 % of control

NCCCCCCN=C(N)C(N)=NCCCCCCN
inactive: dose: 1.5 mg/kg/injection, schedule: Q01DX009 (ip), vehicle: Klucel (hydroxypropylcellulose) (HPC) 96 % of control | dose: 3.0 mg/kg/injection, schedule: Q01DX009 (ip), vehicle: Klucel (hydroxypropylcellulose) (HPC) 112 % of control | dose: 6.0 mg/kg/injection, schedule: Q01DX009 (ip), vehicle: Klucel (hydroxypropylcellulose) (HPC) 102 % of control | dose: 12.5 mg/kg/injection, schedule: Q04DX003 (ip), vehicle: Klucel (hydroxypropylcellulose) (HPC) 93 % of control | dose: 25.0 mg/kg/injection, schedule: Q04DX003 (ip), vehicle: Klucel (hydroxypropylcellulose) (HPC) 93 % of control

O=C(NCCCl)Nc1cccc(C(F)(F)F)c1
inactive: [11] 104 % of control | [12] 107 % of control | [13] 113 % of control

COc1ccccc1NS(=O)(=O)c1ccccc1
inactive: [6] 92 % of control | [7] 103 % of control | [9] 103 % of control

O=C(O)COc1ccccc1-c1ccccc1Cl
inactive: [1] 98 % of control | [2] 90 % of control
